{"source": "patent US10842806B2", "about": "“Methods for treating ocular inflammatory disorders” (Massachusetts Eye and Ear Infirmary, priority 2011, dated 2020)", "key": {"[1]": {"tested_on": "endotoxin-induced uveitis (EIU)", "experiment": "Clinical scoring of EIU by slit lamp examination", "type": "in vivo, Lewis rats", "conditions": "for EIU clinical inflammation score: 24 h after LPS, scale 0-4, mean±SD, PBS-treated EIU 3.6±0.7; for EIU clinical score: no suppression vs controls", "excerpt": "Endotoxin-induced uveitis (EIU) is a rodent model of human uveitis, induced by a single systemic injection of endotoxin or lipopolysaccharide (LPS) (Rosenbaum et al., (1980) NATURE 286:611-613). Injected animals develop acute bilateral anterior inflammation, characterized by a breakdown of the blood-ocular barrier and accumulation of inflammatory cells. EIU has been used to investigate the pathogenesis of uveitis and to evaluate the therapeutic effect of several drugs (Herbort et al. (1989) EXP. EYE RES. 48:693-705; Avunduk et al. (2004) EXP. EYE RES. 79:357-365; Chang et al. (2006) BR. J. OPHTHALMOL. 90:103-108; Wakefield et al. (2010) BR. J. OPHTHALMOL. 94:271-274). The effect of AICAR on ocular inflammation associated with uveitis was assessed using the EIU rat model. Male Lewis rats ranging from 6-8 weeks old (Charles River, Wilmington, Mass.) were used for these studies. To study the effects of AICAR pretreatment, AICAR and PBS (for placebo treatment) were delivered via intraperitoneal injection of AICAR (50 mg/kg or 100 mg/kg body weight; Sigma) diluted in 150 μl PBS or equal volume of PBS at 6 hours before and at the same time as LPS injection. Four experimental groups of rats were compared: (1) Normal: no treatment (2) AICAR: normal rats treated with AICAR 6 hours before examination; (3) LPS: EIU rats treated with PBS; (4) LPS+AICAR: EIU rats treated with AICAR. Two additional groups of rats were used to study the effects of AICAR (50 mg/kg) given either at the same time as LPS injection or at 6 hours after LPS injection. Clinical scoring of EIU was performed as previously described (Pouvreau et al. (1998) J. NEUROIMMUNOL. 86:171-181). Slit lamp examination was conducted 24 hours after LPS injection in a masked fashion. The severity of EIU was graded from 0 to 4 by a masked investigator, using the following scale: 0=no inflammatory reaction; 1=discrete inflammation of the iris and conjunctival vessels; 2=dilation of the iris and conjunctival vessels with moderate flare in the anterior chamber; 3=hyperemia in iris associated with Tyndall effect in the anterior chamber; and 4=same clinical signs as 3 plus the presence of fibrin or synechiae."}, "[2]": {"tested_on": "endotoxin-induced uveitis (EIU)", "experiment": "Histopathologic evaluation of EIU eyes (iris-ciliary body)", "type": "in vivo, Lewis rats", "conditions": "AICAR 50 mg/kg pretreatment, 24 h after LPS", "experimental": "Male Lewis rats ranging from 6-8 weeks old (Charles River, Wilmington, Mass.) were used for these studies. To study the effects of AICAR pretreatment, AICAR and PBS (for placebo treatment) were delivered via intraperitoneal injection of AICAR (50 mg/kg or 100 mg/kg body weight; Sigma) diluted in 150 μl PBS or equal volume of PBS at 6 hours before and at the same time as LPS injection. Four experimental groups of rats were compared: (1) Normal: no treatment (2) AICAR: normal rats treated with AICAR 6 hours before examination; (3) LPS: EIU rats treated with PBS; (4) LPS+AICAR: EIU rats treated with AICAR. Two additional groups of rats were used to study the effects of AICAR (50 mg/kg) given either at the same time as LPS injection or at 6 hours after LPS injection. For histopathologic evaluations, EIU rats were euthanized 24 hours after LPS injection. The eyes were enucleated immediately and stored in 10% formalin solution. The eyes were then embedded in paraffin, and 10 μm sagittal sections were cut and stained with hematoxylin and eosin. For histopathologic evaluation, the anterior chamber and posterior chamber around the iris-ciliary body complex were examined with light microscopy."}, "WT BMDCs": {"tested_on": "WT BMDCs", "experiment": "LPS-stimulated BMDC maturation (FACS) and cytokine production (ELISA)", "type": "cell-based, mice", "experimental": "BMDCs were generated as previously described (Wang et al. (2005) IMMUNOL. LETT. 98:123-130). Briefly, bone marrow was flushed from the femurs and tibias of naive mice (6 to 8-week-old WT or AMPKα1 KO mice). The red blood cells were lysed using Red Blood Cell Lysing Buffer (Sigma). Approximately 2×10^6 cells were cultured in complete medium (RPMI 1640 medium containing 10% FBS, […], 10 mM HEPES [pH 7.4], 2 mM glutamine, 100 U/ml penicillin, and […]) including 10 ng/ml GM-CSF (Pepro Tech, London, England). Fresh media was added to the cells on day 4 of culture, and nonadherent cells and loosely adherent cells were collected as immature DCs on day 7. Immature DCs were stimulated with 100 ng/ml LPS (Salmonella typhimurium; Sigma) for 24 hours to obtain mature DCs. In some experiments, AICAR was added to the culture. […] After LPS stimulation for 24 hours, supernatant of the BMDC culture was collected and IL-6, TNF-α and IL12/23 p40 concentrations were measured (R&D system)."}, "[3]": {"conditions": "100 ng/ml LPS 24 hours with AICAR, dose-dependent manner"}, "[4]": {"conditions": "LPS stimulation for 24 hours with AICAR, ELISA"}}, "data": [{"smiles": "NC(=O)c1ncn([C@@H]2O[C@H](CO)[C@@H](O)[C@H]2O)c1N", "note": "[AICAR, 5-aminoimidazole-4-carboxamide-1-β-d-ribofuranoside]", "values": [{"measurement": "EIU clinical inflammation score", "setting": "[1]; AICAR 50 mg/kg i.p. 6 h before and at same time as LPS, n=15", "result": "2.2±0.75"}, {"measurement": "EIU clinical inflammation score", "setting": "[1]; AICAR 100 mg/kg i.p. 6 h before and at same time as LPS, n=12", "result": "2.7±1.4"}, {"measurement": "Fibrin formation and posterior synechiae", "setting": "[1]; AICAR-pretreated EIU animals vs PBS-treated EIU rats", "result": "rarely seen"}, {"measurement": "Inflammation in normal rats that received AICAR alone", "setting": "[1]; age-matched normal rats, no LPS, n=6", "result": "No inflammation was detected"}, {"measurement": "EIU clinical score", "setting": "[1]; single dose AICAR 50 mg/kg at 6 hours after LPS injection, n=6", "result": "3.9±0.2"}, {"measurement": "EIU clinical score", "setting": "[1]; single dose AICAR 50 mg/kg at the time of LPS injection, n=6", "result": "3.7±0.5"}, {"measurement": "Number of leukocytes infiltrated around the iris-ciliary body (histopathology)", "setting": "[2]", "result": "suppressed"}, {"measurement": "CD40 expression on BMDCs", "setting": "WT BMDCs; [3]", "result": "significantly suppressed"}, {"measurement": "CD80 expression on BMDCs", "setting": "WT BMDCs; [3]", "result": "significantly suppressed"}, {"measurement": "CD86 expression on BMDCs", "setting": "WT BMDCs; [3]", "result": "significantly suppressed"}, {"measurement": "I-A^b expression on BMDCs", "setting": "WT BMDCs; [3]", "result": "significantly suppressed"}, {"measurement": "IL-6 production in BMDCs", "setting": "WT BMDCs; [4]", "result": "significantly suppressed"}, {"measurement": "IL-12/23 p40 production in BMDCs", "setting": "WT BMDCs; [4]", "result": "significantly suppressed"}, {"measurement": "TNF-α production in BMDCs", "setting": "WT BMDCs; [4]", "result": "significantly suppressed"}]}]}
